# Results reported in ChEMBL document CHEMBL5512617, “Tackling Influenza A virus by M2 ion channel blockers: Latest progress and limitations” (Eur J Med Chem, 2024).
# pEC50, pIC50: −log10 of the molar value.
# Legend:
# [1] = molecular target: Matrix protein 2 (Influenza A virus (A/Udorn/307/1972(H3N2)), UniProt P0DOF8, V27A)
# [2] = test system: Influenza A virus; conditions: mdck
SMILES,pIC50 [1],pEC50 [2]
NCC1CCC2(CCCCC2)CC1,4.51,–
NC1CCC2(CC1)C1CC3CC(C1)CC2C3 (stereo unspecified),–,5.74
CC(N)C1CCC2(CCCCC2)CC1 (stereo unspecified),4.60,–
NC1CCCC2(CCCCCC2)CC1 (stereo unspecified),4.95,–
NC1CCCC2(CCCCC2)CC1 (stereo unspecified),4.17,–
C1CCC2(CC1)CCNCC2,< 3.70,–
N=C(N)NC1CCC2(CC1)C1CC3CC(C1)CC2C3 (stereo unspecified),6.30,< 4.52
NC1CSC2(SC1)C1CC3CC(C1)CC2C3 (stereo unspecified),6.40,6.00
NC1CCC2(CCCCCC2)CC1,4.55,–
